Measurements taken from US6525001B1, “Substituted pyrimidine and pyridine herbicides” (Mid-American Commercialization Corporation, priority 1997, dated 2003).

Key:
Format in all cases: in vivo
[1] = tested on: pigweed (Amaranthus retroflexus); test: Test B pre-/postemergence; design: key: 0 is no effect; 10 is complete control
How it was run: (§1)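 Scored visually 0 (none) to 10 (complete control) against untreated plants after twelve to sixteen greenhouse days. Test chemicals, formulated in surfactant-containing non-phytotoxic solvent, applied to soil after planting and, separately, onto 1- to 4-leaf (2–18 cm) plants.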

[2] = tested on: blackgrass (Alopecurus myosuroides); test: Test B pre-/postemergence; design: key: 0 is no effect; 10 is complete control; settings: for Blackgrass plant response rating: Preemergence
How it was run: as §1

[3] = tested on: cocklebur (Xanthium strumarium); test: Test B pre-/postemergence; design: key: 0 is no effect; 10 is complete control; settings: for Cocklebur plant response rating: Preemergence
How it was run: as §1

wild oat (Avena fatua) = test: Test B pre-/postemergence; design: key: 0 is no effect; 10 is complete control
How it was run: as §1

[4] = tested on: giant foxtail (Setaria faberii); test: Test B pre-/postemergence; design: key: 0 is no effect; 10 is complete control
How it was run: as §1

[5] = tested on: broadleaf signalgrass (Brachiaria decumbens); test: Test B pre-/postemergence; design: key: 0 is no effect; 10 is complete control; settings: for B. signalgrass plant response rating: Preemergence
How it was run: as §1

rape (Brassica napus) = test: Test B pre-/postemergence; design: key: 0 is no effect; 10 is complete control
How it was run: as §1

[6] = tested on: crabgrass (Digitaria sanguinalis); test: Test B pre-/postemergence; design: key: 0 is no effect; 10 is complete control; settings: for Crabgrass plant response rating: Preemergence
How it was run: as §1

[7] = tested on: sugar beet (Beta vulgaris); test: Test B pre-/postemergence; design: key: 0 is no effect; 10 is complete control
How it was run: as §1

[8] = tested on: velvetleaf (Abutilon theophrasti); test: Test B pre-/postemergence; design: key: 0 is no effect; 10 is complete control
How it was run: as §1

corn (Zea mays) = test: Test B pre-/postemergence; design: key: 0 is no effect; 10 is complete control; settings: for Corn plant response rating: Preemergence
How it was run: as §1

[9] = tested on: momingglory (Ipomoea hederacea); test: Test B pre-/postemergence; design: key: 0 is no effect; 10 is complete control
How it was run: as §1

soybean (Glycine max) = test: Test B pre-/postemergence; design: key: 0 is no effect; 10 is complete control
How it was run: as §1

[10] = tested on: bedstraw (Galium aparine); test: Test B pre-/postemergence; design: key: 0 is no effect; 10 is complete control; settings: for Bedstraw plant response rating: Preemergence
How it was run: as §1

[11] = tested on: wheat (Triticum aestivum); test: Test B pre-/postemergence; design: key: 0 is no effect; 10 is complete control
How it was run: as §1

[12] = tested on: purple nutsedge (Cyperus rotundus); test: Test B pre-/postemergence; design: key: 0 is no effect; 10 is complete control; settings: Postemergence
How it was run: as §1

[13] = tested on: bamyardgrass (Echinochloa crus-galli); test: Test B flood test
How it was run: (§2)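 Flood test on plants grown to the 2-leaf stage; treated plants kept in greenhouse twelve to sixteen days, then visually rated against controls on a 0 (no effect) to 10 (complete control) scale.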

[14] = tested on: smallflower flatsedge (Cyperus difformis); test: Test B flood test
How it was run: as §2

[15] = tested on: duck salad (Heteranthera limosa); test: Test B flood test
How it was run: as §2

rice (Oryza sativa) = test: Test B flood test
How it was run: as §2

[16] = Rate 250 g/ha, Postemergence (so in the source)
[17] = Rate 62 g/ha, Postemergence (flood test)
[18] = Rate 125 g/ha, Postemergence, flood test
[19] = Rate 250 g/ha, Postemergence (flood test species)
[20] = Rate 125 g/ha, Postemergence section (flood test species)

CCc1cnc(-n2cnc(C(F)(F)F)n2)nc1Cc1cccc(OC(F)(F)F)c1 [Compound 50]
5: Plant response rating, Blackgrass ([2]; Rate 125 g/ha, Postemergence) | Blackgrass plant response rating ([2]; Rate 125 g/ha) | Plant response rating, Ducksalad [15, 18]
1: Plant response rating, Giant foxtail ([4]; Rate 62 g/ha, Postemergence) | Plant response rating, B. signalgrass ([5]; Rate 62 g/ha, Postemergence) | Plant response rating, B. signalgrass ([5]; Rate 125 g/ha, Postemergence) | B. signalgrass plant response rating ([5]; Rate 125 g/ha) | Plant response rating, B. signalgrass ([5]; Rate 250 g/ha, Postemergence as printed in head r139 (second section for compounds 26-50)) | Plant response rating, Crabgrass ([6]; Rate 62 g/ha, Postemergence) | Plant response rating, Corn (corn (Zea mays); Rate 62 g/ha, Postemergence) | Morningglory plant response rating ([9]; Rate 62 g/ha, Preemergence) | Soybean plant response rating (soybean (Glycine max); Rate 62 g/ha, Preemergence) | Plant response rating, Soybean (soybean (Glycine max); Rate 125 g/ha, Preemergence) | Plant response rating, Soybean (soybean (Glycine max); [16]) | Wheat plant response rating ([11]; Rate 62 g/ha, Preemergence)
10: Plant response rating, Blackgrass [2, 16] | Rape plant response rating (rape (Brassica napus); Rate 125 g/ha, Postemergence) | Rape plant response rating (rape (Brassica napus); Rate 125 g/ha, Preemergence) | Plant response rating, Rape (rape (Brassica napus); Rate 250 g/ha, Postemergence) | Plant response rating, Rape (rape (Brassica napus); [16]) | Plant response rating, Sugarbeets ([7]; Rate 250 g/ha, Postemergence) | Plant response rating, Sugarbeets [7, 16] | Plant response rating, Bedstraw ([10]; Rate 125 g/ha, Postemergence)
8: Plant response rating, Redroot pigweed ([1]; Rate 62 g/ha, Postemergence) | Redroot pigweed plant response rating ([1]; Rate 125 g/ha, Postemergence) | Plant response rating, Blackgrass ([2]; Rate 250 g/ha, Postemergence) | Plant response rating, Wild oats (wild oat (Avena fatua); [16]) | Plant response rating, Giant foxtail [4, 16] | Sugarbeets plant response rating ([7]; Rate 125 g/ha, Postemergence) | Plant response rating, Velvetleaf ([8]; Rate 250 g/ha, Postemergence) | S. Flatsedge plant response rating [14, 20] | Plant response rating, Ducksalad [15, 19]
6: Rape plant response rating (rape (Brassica napus); Rate 62 g/ha, Preemergence) | Crabgrass plant response rating ([6]; Rate 62 g/ha) | Plant response rating, Crabgrass ([6]; Rate 250 g/ha, Postemergence) | Sugarbeets plant response rating ([7]; Rate 62 g/ha, Preemergence) | Plant response rating, Sugarbeets ([7]; Rate 125 g/ha, Preemergence) | Plant response rating, Velvetleaf ([8]; Rate 62 g/ha, Postemergence) | Plant response rating, Soybean (soybean (Glycine max); Rate 62 g/ha, Postemergence) | Plant response rating, S. Flatsedge [14, 17]
0: Cocklebur plant response rating ([3]; Rate 62 g/ha) | Cocklebur plant response rating ([3]; Rate 125 g/ha) | Plant response rating, Cocklebur [3, 16] | B. signalgrass plant response rating ([5]; Rate 62 g/ha) | Corn plant response rating (corn (Zea mays); Rate 62 g/ha) | Corn plant response rating (corn (Zea mays); Rate 125 g/ha) | Plant response rating, Corn (corn (Zea mays); [16])
7: Redroot pigweed plant response rating ([1]; Rate 62 g/ha, Preemergence) | Plant response rating, Cocklebur ([3]; Rate 250 g/ha, Postemergence) | Giant foxtail plant response rating ([4]; Rate 125 g/ha, Preemergence) | Plant response rating, Sugarbeets ([7]; Rate 62 g/ha, Postemergence) | Velvetleaf plant response rating ([8]; Rate 125 g/ha, Postemergence) | Plant response rating, Velvetleaf ([8]; Rate 125 g/ha, Preemergence) | Soybean plant response rating (soybean (Glycine max); Rate 125 g/ha, Postemergence) | Plant response rating, Soybean (soybean (Glycine max); Rate 250 g/ha, Postemergence) | Bedstraw plant response rating ([10]; Rate 125 g/ha)
3: Blackgrass plant response rating ([2]; Rate 62 g/ha) | Wild oats plant response rating (wild oat (Avena fatua); Rate 62 g/ha, Preemergence) | Wild oats plant response rating (wild oat (Avena fatua); Rate 125 g/ha, Postemergence) | Plant response rating, Morningglory ([9]; Rate 62 g/ha, Postemergence) | Morningglory plant response rating ([9]; Rate 125 g/ha, Postemergence) | Morningglory plant response rating ([9]; Rate 125 g/ha, Preemergence) | Plant response rating, Morningglory ([9]; Rate 250 g/ha, Postemergence) | Wheat plant response rating ([11]; Rate 62 g/ha, Postemergence) | Wheat plant response rating ([11]; Rate 125 g/ha, Postemergence) | Plant response rating, Barnyardgrass [13, 17] | Rice plant response rating (rice (Oryza sativa); [20])
2: Plant response rating, Blackgrass ([2]; Rate 62 g/ha, Postemergence) | Wild oats plant response rating (wild oat (Avena fatua); Rate 62 g/ha, Postemergence) | Giant foxtail plant response rating ([4]; Rate 62 g/ha, Preemergence) | Giant foxtail plant response rating ([4]; Rate 125 g/ha, Postemergence) | Plant response rating, Giant foxtail ([4]; Rate 250 g/ha, Postemergence) | Plant response rating, B. signalgrass ([5]; Rate 250 g/ha, Postemergence) | Plant response rating, Crabgrass ([6]; Rate 125 g/ha, Postemergence) | Plant response rating, Corn (corn (Zea mays); Rate 125 g/ha, Postemergence) | Plant response rating, Corn (corn (Zea mays); Rate 250 g/ha, Postemergence) | Bedstraw plant response rating ([10]; Rate 62 g/ha) | Plant response rating, Wheat ([11]; Rate 125 g/ha, Preemergence) | Plant response rating, Wheat [11, 16] | Plant response rating, Nutsedge ([12]; Rate 62 g/ha) | Nutsedge plant response rating ([12]; Rate 125 g/ha) | Plant response rating, Nutsedge ([12]; Rate 250 g/ha) | Plant response rating, Rice (rice (Oryza sativa); [17])
9: Redroot pigweed plant response rating ([1]; Rate 125 g/ha, Preemergence) | Plant response rating, Redroot pigweed ([1]; Rate 250 g/ha, Postemergence) | Plant response rating, Redroot pigweed [1, 16] | Plant response rating, Rape (rape (Brassica napus); Rate 62 g/ha, Postemergence) | Crabgrass plant response rating ([6]; Rate 125 g/ha) | Plant response rating, Crabgrass [6, 16] | Plant response rating, Velvetleaf [8, 16] | Plant response rating, Bedstraw ([10]; Rate 62 g/ha, Postemergence) | Plant response rating, Bedstraw [10, 16] | Plant response rating, S. Flatsedge [14, 19]
4: Plant response rating, Cocklebur ([3]; Rate 62 g/ha, Postemergence) | Plant response rating, Cocklebur ([3]; Rate 125 g/ha, Postemergence) | Plant response rating, Wild oats (wild oat (Avena fatua); Rate 125 g/ha, Preemergence) | Plant response rating, Wild oats (wild oat (Avena fatua); Rate 250 g/ha, Postemergence) | Velvetleaf plant response rating ([8]; Rate 62 g/ha, Preemergence) | Plant response rating, Morningglory [9, 16] | Plant response rating, Wheat ([11]; Rate 250 g/ha, Postemergence) | Plant response rating, Barnyardgrass [13, 18] | Plant response rating, Barnyardgrass [13, 19] | Plant response rating, Ducksalad [15, 17] | Plant response rating, Rice (rice (Oryza sativa); [19])
